Reference: patent publication US9890153B2, “Substituted 1H-pyrrolo [2, 3-b] pyridine and 1H-pyrazolo [3, 4-b] pyridine derivatives as salt inducible kinase 2 (SIK2) inhibitors” (Arrien Pharmaceuticals LLC, priority 2012, dated 2018)
Entries after “also recorded” stand apart in the source; their conditions may differ. Like-named read-outs stand apart in the source and are kept apart here.

Assays:
SKOv3 cells = test: SKOv3 i.p. xenograft in nu/nu mice; assay type: in vivo; conditions: derivatives 30, 60 mg/kg, taxol 10 mg/kg, FIG. 5a-c
Method: We examined the growth-inhibitory effect of 1H-Pyrrolo[2,3-b]pyridine derivatives in-vivo employing an i.p. xenograft model in which nu/nu mice were inoculated i.p. with sensitive cell line SKOv3 cells. One week after inoculation, mice were randomized into six treatment groups receiving vehicle, 1H-Pyrrolo[2,3-b]pyridine derivatives 30, 60 mg/kg, taxol 10 mg/kg and 1H-Pyrrolo[2,3-b]pyridine plus taxol. Drug treatment was well tolerated except i.p. treatment second group, with no apparent toxicity throughout the study. At the end of an experiment, all mice were sacrificed for tumor volume, weight and each mouse examined and recorded at autopsy.

SKOV3ip1 tumor cells = test: SKOv3 induced orthotopic murine model; assay type: in vivo, athymic female mice; conditions: 20-100 mg/kg i.p. or p.o.
Method: Dose-finding experiments initiated by injecting SKOV3ip1 (SKOV3ip1 cells were collected from cultures using either 0.25% trypsin-EDTA (Life Technologies) on the cell line) tumor cells i.p. (2.5×10^5) into athymic female mice. 19 days after tumor cell orthotopic inoculation and when i.p. tumors were palpable, then the mice randomized into 6 dosage groups: 0 mg (vehicle alone, group 1), 20 and 40 mg/kg (groups 2, 3) received 1H-Pyrrolo[2,3-b]pyridine compound i.p QD for 3 days (M/W/F), 60 and 80 mg/kg (groups 4, 5) received 1H-Pyrrolo[2,3-b]pyridine compound p.o BID for 3 days (M/W/F) and 100 mg/kg group received 1H-Pyrrolo[2,3-b]pyridine compound+Taxol p.o BID for 3 days (M/W/F). […] Additionally, we performed quantitative RT-PCR, Western blot, and immunocytology experiments to identify overexpression of SIK2 in control groups against treatment groups along with SIK2 inhibition of transcription factor CREB via phosphorylation of its cofactor TORC2/CRTC2 as a biological indicator of SIK2 kinase activity. Further characterized the effects of SIK2 kinase inhibition on tumor growth inhibition, examined the tumor nodule formation.

[1] = target: T1, SIK3 (QSK) (SEQ ID NO: 24) (Homo sapiens, UniProt Q9Y2K2); test: Protein kinase assay, SIK3; assay type: biochemical; conditions: read-out: SIK3 (QSK) (SEQ ID NO: 24) kinase inhibition result
T1 construct: Reaction Biology Corporation (assay service, HotSpot panel)
In short: (§1)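 Radiometric assay in HEPES pH 7.5 with MgCl2, EGTA, Brij35, BSA, Na3VO4, DTT and 1% DMSO; compound added ~20 min before ATP plus 33P-ATP (10 μM final). IC50 from curve fits.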

[2] = target: SIK2 (QIK) (SEQ ID NO: 11) (Homo sapiens, UniProt Q9H0K1); test: SIK2 kinase assay (radiometric, 10 μM ATP); assay type: biochemical; conditions: read-out: SIK2 (QIK) (SEQ ID NO: 11) kinase inhibition result
In short: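 Radiometric filter-binding format: enzyme and substrate peptide incubated with or without compound and ATP mix for 20 min at 30 °C. Reaction stopped with phosphoric acid, captured on filter mats and washed with 0.8% phosphoric acid before counting.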

[3] = Rat bioavailability and pharmacokinetics; assay type: in vivo, male Sprague Dawley rats
Method: The objective of this study was to investigate the bio-availability and pharmacokinetics of a 1H-Pyrrolo[2,3-b]pyridine compound in male Sprague Dawley rats. A total of 6 male rats were used in the study.
Dose formulations were prepared on the day of doing. Blood samples were collected at 0.083 (only IV), 0.25, 0.5, 1, 2, 4, 8 and 24 h post-dose. At each time point, approximately 0.2 mL of blood was withdrawn from each cannulated rat through jugular vein and transferred to a pre-labeled microfuge tube containing 20 μL of 200 mM K2EDTA permL of blood. Following collection of blood sample, equal volume of heparinized saline was flushed into jugular vein of rat. The blood samples were centrifuged at 5000 g for 5 minutes at 4±2° C. The plasma was separated within 30 min of scheduled time and stored below −60° C. until bio-analysis. The plasma samples were analyzed for 114 using a fit-for purpose liquid chromatographic tandem mass spectrometric detection (LC-MS/MS) method with a lower limit of quantification of 2.21 ng/mL. The pharmacokinetic parameters for compound 114 were calculated using the non-compartmental analysis tool of validated WinNonlin® software (Version 5.2).

SIK1 (SEQ ID NO: 10) = target: T2, SIK1 (SEQ ID NO: 10) (Homo sapiens, UniProt P57059); test: Protein kinase assay, SIK1; assay type: biochemical; conditions: read-out: SIK1 (SEQ ID NO: 10) kinase inhibition result
T2 construct: Reaction Biology Corporation (assay service, HotSpot panel)
In short: as §1

[4] = male, Sprague Dawley, plasma, IV 5 mg/kg, rat
[5] = male, Sprague Dawley, plasma, PO 20 mg/kg, rat

Chain of SIK2 (QIK) (SEQ ID NO: 11) (Q9H0K1 whole entry): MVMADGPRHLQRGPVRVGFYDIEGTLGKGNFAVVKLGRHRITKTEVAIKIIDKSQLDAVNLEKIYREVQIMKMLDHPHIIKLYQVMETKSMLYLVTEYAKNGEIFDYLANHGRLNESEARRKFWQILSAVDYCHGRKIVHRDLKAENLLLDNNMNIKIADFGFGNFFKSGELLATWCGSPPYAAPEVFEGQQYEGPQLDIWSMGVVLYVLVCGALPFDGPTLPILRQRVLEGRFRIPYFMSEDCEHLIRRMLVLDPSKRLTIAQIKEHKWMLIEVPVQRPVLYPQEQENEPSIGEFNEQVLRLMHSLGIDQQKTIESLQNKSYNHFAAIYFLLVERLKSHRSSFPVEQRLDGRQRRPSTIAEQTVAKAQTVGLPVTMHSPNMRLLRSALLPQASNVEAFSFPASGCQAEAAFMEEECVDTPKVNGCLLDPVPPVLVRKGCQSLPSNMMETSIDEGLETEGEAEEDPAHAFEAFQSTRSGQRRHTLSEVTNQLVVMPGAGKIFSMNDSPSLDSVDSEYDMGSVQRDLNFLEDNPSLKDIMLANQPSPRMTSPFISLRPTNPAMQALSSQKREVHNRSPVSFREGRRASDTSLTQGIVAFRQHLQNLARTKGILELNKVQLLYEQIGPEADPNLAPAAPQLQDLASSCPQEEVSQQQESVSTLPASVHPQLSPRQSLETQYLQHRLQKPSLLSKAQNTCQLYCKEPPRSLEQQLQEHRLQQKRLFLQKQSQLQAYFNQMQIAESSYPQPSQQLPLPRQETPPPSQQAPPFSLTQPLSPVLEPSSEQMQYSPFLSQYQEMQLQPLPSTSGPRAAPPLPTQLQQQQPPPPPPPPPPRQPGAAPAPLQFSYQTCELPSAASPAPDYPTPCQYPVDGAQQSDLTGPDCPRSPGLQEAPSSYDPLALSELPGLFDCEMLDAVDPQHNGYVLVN
T1 sequence (Q9Y2K2 whole entry): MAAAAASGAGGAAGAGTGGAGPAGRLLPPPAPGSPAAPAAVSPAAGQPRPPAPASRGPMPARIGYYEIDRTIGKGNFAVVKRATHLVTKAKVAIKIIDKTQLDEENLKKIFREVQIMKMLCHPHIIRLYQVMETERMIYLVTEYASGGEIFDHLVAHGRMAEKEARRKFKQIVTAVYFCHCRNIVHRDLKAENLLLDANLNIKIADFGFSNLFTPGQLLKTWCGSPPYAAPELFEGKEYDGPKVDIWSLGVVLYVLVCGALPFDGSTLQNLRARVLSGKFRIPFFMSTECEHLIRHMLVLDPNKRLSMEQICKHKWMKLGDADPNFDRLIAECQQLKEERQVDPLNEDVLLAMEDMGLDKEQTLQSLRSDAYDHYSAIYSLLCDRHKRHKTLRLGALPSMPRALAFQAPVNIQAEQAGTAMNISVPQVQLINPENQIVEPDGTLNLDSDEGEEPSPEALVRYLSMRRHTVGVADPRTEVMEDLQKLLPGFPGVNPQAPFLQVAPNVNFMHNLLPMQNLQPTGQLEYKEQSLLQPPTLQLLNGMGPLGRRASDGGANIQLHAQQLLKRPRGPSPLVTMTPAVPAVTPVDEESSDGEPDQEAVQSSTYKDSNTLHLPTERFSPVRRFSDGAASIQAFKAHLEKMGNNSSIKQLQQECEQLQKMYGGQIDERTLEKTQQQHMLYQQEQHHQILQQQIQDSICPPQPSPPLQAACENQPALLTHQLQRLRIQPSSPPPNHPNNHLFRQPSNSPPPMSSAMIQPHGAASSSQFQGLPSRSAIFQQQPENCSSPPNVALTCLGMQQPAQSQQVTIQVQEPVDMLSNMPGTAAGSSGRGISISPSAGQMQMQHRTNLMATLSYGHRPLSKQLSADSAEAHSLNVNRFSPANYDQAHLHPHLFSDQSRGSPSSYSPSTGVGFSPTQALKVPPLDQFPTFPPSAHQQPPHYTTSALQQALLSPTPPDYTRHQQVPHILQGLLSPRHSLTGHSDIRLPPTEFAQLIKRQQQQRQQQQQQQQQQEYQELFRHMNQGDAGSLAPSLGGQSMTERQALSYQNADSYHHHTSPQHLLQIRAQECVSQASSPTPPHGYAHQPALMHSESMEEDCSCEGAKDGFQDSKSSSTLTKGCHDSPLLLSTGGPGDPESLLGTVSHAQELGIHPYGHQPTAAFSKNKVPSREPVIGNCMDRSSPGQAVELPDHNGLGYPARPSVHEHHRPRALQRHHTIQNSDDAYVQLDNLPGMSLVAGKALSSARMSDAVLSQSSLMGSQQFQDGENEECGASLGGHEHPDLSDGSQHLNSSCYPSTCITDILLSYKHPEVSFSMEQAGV
T2 sequence (P57059 whole entry): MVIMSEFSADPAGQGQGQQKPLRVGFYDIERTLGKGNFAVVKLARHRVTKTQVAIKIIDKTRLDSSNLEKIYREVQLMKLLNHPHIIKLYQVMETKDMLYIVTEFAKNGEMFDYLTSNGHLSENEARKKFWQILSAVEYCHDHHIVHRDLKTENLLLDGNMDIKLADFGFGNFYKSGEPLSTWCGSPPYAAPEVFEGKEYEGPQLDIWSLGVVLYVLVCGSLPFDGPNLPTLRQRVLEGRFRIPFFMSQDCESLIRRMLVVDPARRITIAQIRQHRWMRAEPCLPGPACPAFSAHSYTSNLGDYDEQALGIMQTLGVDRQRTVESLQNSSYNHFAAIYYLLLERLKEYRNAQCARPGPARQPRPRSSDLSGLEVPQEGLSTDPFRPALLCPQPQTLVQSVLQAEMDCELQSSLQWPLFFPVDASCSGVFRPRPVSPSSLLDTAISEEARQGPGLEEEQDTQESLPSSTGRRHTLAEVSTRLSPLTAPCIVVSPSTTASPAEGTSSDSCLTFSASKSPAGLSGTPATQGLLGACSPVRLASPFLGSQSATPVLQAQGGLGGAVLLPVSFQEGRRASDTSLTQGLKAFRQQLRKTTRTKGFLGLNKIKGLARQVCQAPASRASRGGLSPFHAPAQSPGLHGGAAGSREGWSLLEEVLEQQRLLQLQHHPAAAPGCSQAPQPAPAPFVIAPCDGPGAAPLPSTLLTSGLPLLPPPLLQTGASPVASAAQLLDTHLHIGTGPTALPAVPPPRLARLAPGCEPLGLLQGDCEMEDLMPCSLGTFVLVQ

IC50 [1]	IC50 [2]	F ([3]; PO 20 mg/kg vs IV 5 mg/kg, from AUCinf and nominal doses)	AUC(0-inf) [3, 4]	AUC(0-t) [3, 4]	clearance [3, 4]	half-life [3, 4]	Cmax ([3]; male, Sprague Dawley, plasma, IV 5 mg/kg, rat, read-out: Cmax (concentration at time zero))	Vd ([3]; male, Sprague Dawley, plasma, IV 5 mg/kg, rat, read-out: Vss)	AUC(0-inf) [3, 5]	AUC(0-t) [3, 5]	Cmax ([3]; male, Sprague Dawley, plasma, PO 20 mg/kg, rat, read-out: Cmax)	Tmax ([3]; male, Sprague Dawley, plasma, PO 20 mg/kg, rat, read-out: Tmax (median))	IC50 (SIK1 (SEQ ID NO: 10))	Compound	antitumor effect (tumor volume, weight, number) (SKOv3 cells)	antitumor effect (SKOV3ip1 tumor cells)
–	–	–	–	–	–	–	–	–	–	–	–	–	–	CC(=O)O[C@H]1C(=O)[C@@]2(C)[C@H]([C@H](OC(=O)c3ccccc3)[C@]3(O)C[C@H](OC(=O)[C@H](O)[C@@H](NC(=O)c4ccccc4)c4ccccc4)C(C)=C1C3(C)C)[C@]1(OC(C)=O)CO[C@@H]1C[C@@H]2O [taxol]	significant antitumor effects; also recorded: inhibited the abdominal tumor growth and tumor cell dissemination	significant antitumor effects
> 1000 nM	< 100 nM	15%	2620 ± 647 ng·h/mL	2600 ± 637 ng·h/mL	33.4 ± 9.57 mL/min/kg	32.4 ± 3 min	3850 ng/mL	1.61 ± 0.28 L/kg	1600 ± 183 ng·h/mL	1580 ± 179 ng·h/mL	853 ng/mL	15 min	> 100 nM	Fc1cccc(-c2c[nH]c3ncc(-c4ccsc4)cc23)c1Cl [Example 114, 3-(2-chloro-3-fluorophenyl)-5-(thiophen-3-yl)-1H-pyrrolo[2,3-b]pyridine]	–	–
